We go through three compounds from US20240174657A1, “SELECTIVE ANGIOTENSIN II RECEPTOR LIGANDS” (priority 2021, published 2024).

As usually defined, the IC50 is the concentration needed to halve the response being measured.

The nature of data set [1]: Metabolic stability in pooled human liver microsomes. Format: in vitro ADME. The settings on record: human liver microsomes 0.5 mg/mL, 1 uM test compound, 37° C.; for T1/2, + NaDPH: with 1 mM NADPH; for half-life at 1 uM: pooled human liver microsomes, without NADPH, read-out: T1/2, no NaDPH. The method, then:
Pooled human liver microsomes in PBS at a concentration of 0.5 mg/mL was incubated with or without 1 mM NADPH for 70 min at 37° C. Test compound was added after 10 minutes to a final concentration of 1 uM. Samples were withdrawn at 0, 5, 15 and 60 minutes and added to test tubes containing acetonitrile, to stop the reaction, and with terfenadine, used as internal standard. After centrifugation at 10 000×g for 5 minutes the supernatant was diluted 1:1 with 1% formic acid. Samples were separated on a reverse phase column and detected by triple quadrupole MSMS (Agilant model 6540). The concentration of the parent compound at the different time points was measured with an external standard curve using terfenadine as internal standard and the initial metabolic rate in the presence or absence of NADPH calculated.
(In general: Liver microsomes are a subcellular fraction often used to study metabolism.)

In data set [2] the target is T1, human recombinant AT2 receptor (Homo sapiens, UniProt P50052).
T1 sequence (P50052 1-363): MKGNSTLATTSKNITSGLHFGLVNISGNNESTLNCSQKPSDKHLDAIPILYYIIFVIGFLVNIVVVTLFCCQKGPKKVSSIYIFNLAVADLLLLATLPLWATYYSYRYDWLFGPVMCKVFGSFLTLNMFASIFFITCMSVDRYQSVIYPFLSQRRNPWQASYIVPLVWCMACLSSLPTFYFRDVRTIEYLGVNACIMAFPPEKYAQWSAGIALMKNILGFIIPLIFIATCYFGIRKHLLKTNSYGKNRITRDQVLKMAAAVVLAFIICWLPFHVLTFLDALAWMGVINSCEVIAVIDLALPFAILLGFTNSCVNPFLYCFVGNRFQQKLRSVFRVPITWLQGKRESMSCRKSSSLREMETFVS
The data set can be described thus: biochemical. In kind it is binding. The settings on record: test concentrations 1, 10, 100 and 1000 nM; ligand 125I CGP 42112A; C21* = mean of runs; read-out: AT2 GraFit IC50.

Data set [3] addresses T2, human recombinant AT1 receptor (Homo sapiens, UniProt P30556).
T2 construct: Eurofins protocol ITEM24
T2 sequence (P30556 1-359): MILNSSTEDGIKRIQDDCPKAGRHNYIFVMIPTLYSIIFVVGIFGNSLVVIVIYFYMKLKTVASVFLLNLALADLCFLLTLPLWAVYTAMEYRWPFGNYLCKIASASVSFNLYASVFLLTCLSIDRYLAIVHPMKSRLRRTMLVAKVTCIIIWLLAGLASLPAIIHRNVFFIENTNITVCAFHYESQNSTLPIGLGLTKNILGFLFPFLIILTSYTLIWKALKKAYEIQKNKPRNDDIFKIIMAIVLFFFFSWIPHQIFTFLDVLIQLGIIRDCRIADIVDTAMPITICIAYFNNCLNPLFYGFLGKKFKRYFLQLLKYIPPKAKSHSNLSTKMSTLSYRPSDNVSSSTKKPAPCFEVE
Kind of data set: Binding to AT1 receptor, radiometric scintillation assay (Eurofins ITEM24).

A further data set deals with T3, CYP1A (Homo sapiens, UniProt P05177).
T3 construct: using isoform-specific substrates incubated with human liver microsomes; tissue Eurofins protocol ITEMG232; host or cells: human liver microsomes
T3 sequence (P05177 whole entry, canonical isoform): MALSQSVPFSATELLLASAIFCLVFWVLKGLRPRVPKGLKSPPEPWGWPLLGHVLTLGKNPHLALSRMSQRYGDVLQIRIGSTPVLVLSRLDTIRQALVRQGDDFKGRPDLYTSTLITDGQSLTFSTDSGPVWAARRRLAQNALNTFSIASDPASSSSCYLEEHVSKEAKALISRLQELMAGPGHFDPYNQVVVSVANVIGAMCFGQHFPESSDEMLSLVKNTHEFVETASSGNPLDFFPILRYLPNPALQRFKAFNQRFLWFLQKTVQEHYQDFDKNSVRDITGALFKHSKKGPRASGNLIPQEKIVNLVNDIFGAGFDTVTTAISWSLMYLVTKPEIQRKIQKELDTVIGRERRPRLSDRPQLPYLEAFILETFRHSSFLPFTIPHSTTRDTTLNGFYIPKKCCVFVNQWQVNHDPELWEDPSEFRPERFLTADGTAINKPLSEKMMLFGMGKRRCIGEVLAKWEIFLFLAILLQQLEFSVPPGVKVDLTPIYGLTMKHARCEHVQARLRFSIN
The data set can be described thus: CYP inhibition in human liver microsomes, phenacetin substrate. Format: in vitro ADME. The settings on record: probe phenacetin, read-out: CYP1A Inh %.

The next data set deals with T4, CYP2B6 (Homo sapiens, UniProt P20813).
T4 construct: using isoform-specific substrates incubated with human liver microsomes; tissue Eurofins protocol ITEMG232; host or cells: human liver microsomes
T4 sequence (P20813 1-491): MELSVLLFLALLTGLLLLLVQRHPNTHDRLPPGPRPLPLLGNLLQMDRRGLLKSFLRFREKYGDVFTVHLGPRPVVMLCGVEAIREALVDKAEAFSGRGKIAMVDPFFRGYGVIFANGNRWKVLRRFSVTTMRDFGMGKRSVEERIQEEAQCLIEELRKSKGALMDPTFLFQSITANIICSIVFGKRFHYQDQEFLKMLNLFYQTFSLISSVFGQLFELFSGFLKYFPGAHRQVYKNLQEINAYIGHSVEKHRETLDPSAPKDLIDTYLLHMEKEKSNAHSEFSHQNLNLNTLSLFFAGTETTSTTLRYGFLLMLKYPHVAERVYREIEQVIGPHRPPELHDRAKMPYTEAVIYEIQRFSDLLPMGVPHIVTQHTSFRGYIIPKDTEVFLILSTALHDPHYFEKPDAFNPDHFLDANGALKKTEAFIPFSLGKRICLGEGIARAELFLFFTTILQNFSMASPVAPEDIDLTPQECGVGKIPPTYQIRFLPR
The data set can be described thus: CYP inhibition in human liver microsomes, bupropion substrate. The settings on record: probe bupropion, read-out: CYP2B6 Inh %. Format: in vitro ADME.

The next data set has as its target T5, CYP2C19 (Homo sapiens, UniProt P33261).
T5 construct: using isoform-specific substrates incubated with human liver microsomes; tissue Eurofins protocol ITEMG232; host or cells: human liver microsomes
Kind of data set: CYP inhibition in human liver microsomes, omeprazole substrate. In kind it is in vitro ADME. The following applies: probe omeprazole, read-out: CYP2C19 Inh %.

In another data set the target is T6, CYP2C8 (Homo sapiens, UniProt P10632).
T6 construct: using isoform-specific substrates incubated with human liver microsomes; tissue Eurofins protocol ITEMG232; host or cells: human liver microsomes
T6 sequence (P10632 1-490): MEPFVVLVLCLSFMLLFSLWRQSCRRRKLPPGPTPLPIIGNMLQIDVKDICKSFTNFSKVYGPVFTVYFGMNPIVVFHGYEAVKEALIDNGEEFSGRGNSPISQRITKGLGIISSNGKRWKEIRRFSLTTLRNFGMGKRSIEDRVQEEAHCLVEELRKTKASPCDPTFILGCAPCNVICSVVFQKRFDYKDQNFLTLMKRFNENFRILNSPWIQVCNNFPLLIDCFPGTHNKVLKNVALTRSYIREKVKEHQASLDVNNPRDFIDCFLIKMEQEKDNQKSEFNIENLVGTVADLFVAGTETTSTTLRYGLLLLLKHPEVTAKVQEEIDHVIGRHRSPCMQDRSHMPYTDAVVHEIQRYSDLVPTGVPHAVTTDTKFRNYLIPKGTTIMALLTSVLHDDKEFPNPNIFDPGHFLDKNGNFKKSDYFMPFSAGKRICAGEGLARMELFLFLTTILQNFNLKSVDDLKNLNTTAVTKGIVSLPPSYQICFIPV
The data set can be described thus: CYP inhibition in human liver microsomes, paclitaxel and amodiaquine substrates. The settings on record: probe paclitaxel and amodiaquine, read-out: CYP2C8 Inh %. Format: in vitro ADME.

For a further data set, the target named is T7, CYP2C9 (Homo sapiens, UniProt P11712).
T7 construct: using isoform-specific substrates incubated with human liver microsomes; tissue Eurofins protocol ITEMG232; host or cells: human liver microsomes
T7 sequence (P11712 whole entry, canonical isoform): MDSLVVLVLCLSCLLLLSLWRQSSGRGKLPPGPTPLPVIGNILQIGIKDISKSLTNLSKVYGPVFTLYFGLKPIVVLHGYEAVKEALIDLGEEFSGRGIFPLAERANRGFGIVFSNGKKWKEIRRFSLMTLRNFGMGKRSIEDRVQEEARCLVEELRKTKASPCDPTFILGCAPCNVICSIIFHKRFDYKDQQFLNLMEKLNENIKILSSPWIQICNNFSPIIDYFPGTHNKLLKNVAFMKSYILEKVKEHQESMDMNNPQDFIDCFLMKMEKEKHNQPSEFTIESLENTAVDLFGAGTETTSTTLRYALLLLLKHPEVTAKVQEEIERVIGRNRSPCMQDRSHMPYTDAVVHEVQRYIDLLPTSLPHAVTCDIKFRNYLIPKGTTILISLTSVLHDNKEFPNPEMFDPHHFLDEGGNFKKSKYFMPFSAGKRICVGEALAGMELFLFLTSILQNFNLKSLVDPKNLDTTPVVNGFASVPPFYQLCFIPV
The data set can be described thus: CYP inhibition in human liver microsomes, diclofenac substrate. In kind it is in vitro ADME. The following applies: probe diclofenac, read-out: CYP2C9 Inh %.

For another data set, the target named is T8, CYP2D6 (Homo sapiens, UniProt P10635).
T8 construct: tissue Eurofins protocol ITEMG232; host or cells: human liver microsomes
T8 sequence (P10635 whole entry): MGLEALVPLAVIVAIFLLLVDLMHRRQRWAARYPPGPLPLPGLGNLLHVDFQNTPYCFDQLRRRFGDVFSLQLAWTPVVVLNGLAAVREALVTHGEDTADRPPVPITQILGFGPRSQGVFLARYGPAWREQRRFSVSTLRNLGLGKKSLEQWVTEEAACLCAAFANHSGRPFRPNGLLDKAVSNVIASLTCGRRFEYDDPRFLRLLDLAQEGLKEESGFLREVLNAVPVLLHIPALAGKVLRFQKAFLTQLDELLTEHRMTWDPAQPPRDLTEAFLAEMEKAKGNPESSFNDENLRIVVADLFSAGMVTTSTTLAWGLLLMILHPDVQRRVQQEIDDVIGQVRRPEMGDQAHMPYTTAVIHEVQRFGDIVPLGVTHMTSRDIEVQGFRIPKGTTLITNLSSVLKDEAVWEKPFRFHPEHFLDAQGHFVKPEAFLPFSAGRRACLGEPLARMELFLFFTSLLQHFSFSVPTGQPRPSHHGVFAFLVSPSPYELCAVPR
Kind of data set: CYP inhibition in human liver microsomes, dextromethorphan substrate. Format: in vitro ADME. The settings on record: probe dextromethorphan, read-out: CYP2D6 Inh %.

A further data set concerns the target T9, CYP3A4 (Homo sapiens, UniProt P08684).
T9 construct: using isoform-specific substrates incubated with human liver microsomes; tissue Eurofins protocol ITEMG232; host or cells: human liver microsomes
The data set can be described thus: CYP inhibition in human liver microsomes, midazolam substrate. Format: in vitro ADME. The following applies: probe midazolam, read-out: CYP3A4 midazolam Inh %.

In a further data set the test system is CYP3A4&5. Kind of data set: CYP inhibition in human liver microsomes, testosterone substrate. In kind it is in vitro ADME. The following applies: probe testosterone, read-out: CYP3A4&5 testosterone Inh %.
The test system of data set [4] is Cytochrome P450 enzymes (CYPs), especially CYP 2C9 and CYP 3A4. Kind of data set: CYP enzyme inhibition, statements in text without method. Format: in vitro ADME. The following applies: found during development.
Data set [5] in a line: Metabolic hydrolysis, statement in text without method. Format: in vitro ADME. The following applies: found during development.

T5 sequence (P33261 whole entry, canonical isoform): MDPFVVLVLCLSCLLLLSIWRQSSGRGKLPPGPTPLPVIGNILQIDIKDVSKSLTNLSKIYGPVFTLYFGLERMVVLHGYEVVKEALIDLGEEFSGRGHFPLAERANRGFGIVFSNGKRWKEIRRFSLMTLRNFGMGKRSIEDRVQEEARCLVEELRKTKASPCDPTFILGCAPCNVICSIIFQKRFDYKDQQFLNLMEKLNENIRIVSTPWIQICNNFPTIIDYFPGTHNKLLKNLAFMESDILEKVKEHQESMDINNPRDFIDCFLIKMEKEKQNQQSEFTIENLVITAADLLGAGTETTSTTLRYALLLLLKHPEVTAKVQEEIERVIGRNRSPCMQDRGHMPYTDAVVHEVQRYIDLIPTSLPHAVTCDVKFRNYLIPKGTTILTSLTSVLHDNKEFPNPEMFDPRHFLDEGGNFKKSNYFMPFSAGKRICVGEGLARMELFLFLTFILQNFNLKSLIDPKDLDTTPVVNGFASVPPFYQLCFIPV
T9 sequence (P08684 whole entry, canonical isoform): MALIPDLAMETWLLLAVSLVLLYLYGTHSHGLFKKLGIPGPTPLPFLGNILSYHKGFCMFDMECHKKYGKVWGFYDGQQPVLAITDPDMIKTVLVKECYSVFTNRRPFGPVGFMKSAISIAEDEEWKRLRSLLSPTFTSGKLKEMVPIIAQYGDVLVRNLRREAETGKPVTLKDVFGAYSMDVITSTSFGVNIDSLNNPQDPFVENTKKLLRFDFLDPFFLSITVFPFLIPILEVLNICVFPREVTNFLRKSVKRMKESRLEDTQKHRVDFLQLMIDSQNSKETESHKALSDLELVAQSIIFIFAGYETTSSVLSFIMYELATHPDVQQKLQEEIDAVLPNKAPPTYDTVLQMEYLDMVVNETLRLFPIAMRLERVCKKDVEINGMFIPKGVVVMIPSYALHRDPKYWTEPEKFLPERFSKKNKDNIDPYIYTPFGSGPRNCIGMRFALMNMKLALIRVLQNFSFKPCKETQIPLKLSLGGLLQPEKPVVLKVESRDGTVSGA

With `CC(C)Cc1cc(-c2ccc(Cn3ccnc3C(C)(C)C)c(F)c2)c(S(=O)(=O)NC(=O)NCC(C)(C)O)s1` [Example 7, 1-[[3-[4-[(2-tert-Butylimidazol-1-yl)methyl]-3-fluoro-phenyl]-5-isobutyl-2-thienyl]sulfonyl]-3-(2-hydroxy-2-methyl-propyl)urea], the “T1/2, + NaDPH” value in [1] is greater than 1 h. In addition, the half-life at 1 uM in data set [1] is greater than 1 h. The half-maximal inhibitory concentration (IC50) in data set [2] was determined as 0.95 nM; in data set [3], 1900 nM. For the same compound, the inhibition at 10 µM was 2.7% on CYP1A; 17.4% at CYP2B6; 27.4% at CYP2C19; 69.8% on CYP2C8; 9.9% at CYP2C9; 3.9% on CYP2D6. Moreover, the inhibition at 10 µM on CYP3A4 stood at 7.7%; in the data set with CYP3A4&5, 2.8%.
In the case of `CCc1nccn1Cc1ccc(-c2cc(CC(C)C)sc2S(=O)(=O)NC(=O)NCCO)cc1F` [Example 8], the “T1/2, + NaDPH” value in data set [1] is greater than 1 h. The half-life at 1 uM in data set [1] was greater than 1 h. Further, the values for the IC50 in data set [2] and in data set [3] were 2.5 nM and 9500 nM, respectively. For the same compound, the inhibition at 10 µM on CYP1A came to 11.8%; on CYP2B6 it was 14%; at CYP2C19, 17.7%; at CYP2C8, 2.3%; at CYP2C9 it was 26.8%; at CYP2D6 it was 8%. The results for the inhibition at 10 µM on CYP3A4 and in the data set on CYP3A4&5 were 23.7% and 22.3%, respectively.
In the case of `CCCCOC(=O)NS(=O)(=O)c1sc(CC(C)C)cc1-c1ccc(Cn2ccnc2)cc1` [Example C21, N-butyloxycarbonyl-3-(4-imidazol-1-ylmethylphenyl)-5-isobutylthiophene-2-sulfon-amide], the inhibition at 10 µM with CYP3A4&5 was 94%. The “inhibition of Cytochrome P450 enzymes (in words)” value in data set [4] was “potent inhibitor”. In addition, the “metabolic hydrolysis (in words)” value in data set [5] was “rapidly hydrolysed to an inactive sulfonamide metabolite”.
